Results as given in ChEMBL document CHEMBL4706623, “GPR52 Antagonist Reduces Huntingtin Levels and Ameliorates Huntington's Disease-Related Phenotypes” (J Med Chem, 2021).

Target: G-protein coupled receptor 52 (Homo sapiens, UniProt Q9Y2T5)
Test: Antagonist activity at GPR52 (unknown origin) expressed in HEK293 cells assessed as inhibition of WO459-induced cAMP accumulation preincubated for 15 mins followed by WO459 addition and measured after 30 mins by LANCE Ultra cAMP kit based microplate reader analysis
Type: functional, cell-based
Details: read-out: IC50

G-protein coupled receptor 52, sequence (Q9Y2T5 whole entry): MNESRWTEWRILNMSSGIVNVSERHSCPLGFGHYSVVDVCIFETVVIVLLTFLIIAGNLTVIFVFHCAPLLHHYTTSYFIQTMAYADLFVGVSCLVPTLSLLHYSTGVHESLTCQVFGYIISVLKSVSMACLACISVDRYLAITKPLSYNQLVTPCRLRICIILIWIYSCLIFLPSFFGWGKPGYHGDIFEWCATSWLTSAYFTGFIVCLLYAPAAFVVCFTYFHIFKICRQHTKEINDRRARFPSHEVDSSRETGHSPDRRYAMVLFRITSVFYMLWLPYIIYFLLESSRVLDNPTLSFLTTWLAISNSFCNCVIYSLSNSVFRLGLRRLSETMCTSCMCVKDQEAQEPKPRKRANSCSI

Compound | IC50 [nM]
O=C(/C=C/CCc1ccccc1)c1ccccc1-c1ccccc1 | 1230
O=C(/C=C/CCc1ccccc1)c1ccc2ccccc2c1 | 3540
COc1ccccc1C(=O)/C=C/CCc1ccccc1 | 1720
